Reference: patent publication US9006257B2, “Bicyclic compounds as mPGES-1 inhibitors” (Glenmark Pharmaceuticals S.A., priority 2012, dated 2015)

Biological target: T1, Recombinant human mPGES-1 (Homo sapiens, UniProt O14684)
T1 construct: made in house; host or cells: CHO cells
T1 sequence (O14684 1-152): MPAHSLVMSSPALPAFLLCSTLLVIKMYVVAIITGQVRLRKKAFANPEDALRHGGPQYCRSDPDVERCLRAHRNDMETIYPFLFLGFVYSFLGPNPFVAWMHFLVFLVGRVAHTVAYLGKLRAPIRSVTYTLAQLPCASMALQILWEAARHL
Assay: In-vitro mPGES-1 inhibitor screening (inhibition of PGE2 formation from PGH2, HTRF detection)
Type: biochemical
Conditions: for inhibition at 1 µM: 1 μM test compound, read-out: Percentage inhibition at 1 μM; for inhibition at 1 µM / inhibition at 10 µM: crude microsomal fraction, 15 μM PGH2; for inhibition at 10 µM: 10 μM test compound, read-out: Percentage inhibition at 10 μM; for IC50: class symbol, concentration response curve
Text: In-Vitro Protocol for Screening of mPGES-1 Inhibitors:
mPGES-1 (microsomal prostaglandin E synthase-1) is a microsomal enzyme that converts endoperoxide substrate PGH2 (prostaglandin H2) to product PGE2 (prostaglandin E2) by isomerization in the presence of reduced glutathione (GSH). mPGES-1 inhibitors were screened by assessing their ability to inhibit formation of PGE2 from PGH2 in presence of mPGES-1 using an anti-PGE2 antibody based detection method. Recombinant human mPGES-1 was generated in-house by expression in CHO cells (Ouellet M et al. (2002), Protein Expression and Purification 26: 489-495). The assay was set up using crude microsomal fractions at protein concentration of 40-60 μg/mL. Test compounds were prepared in 100% dimethyl sulfoxide (DMSO) to obtain 20 mM stock solution and then diluted using assay buffer comprising 0.1 M Potassium phosphate buffer with 2 mM EDTA. The final concentration of DMSO in reaction was 0.5% (v/v). Negative controls were comprised of all assay reagents except the enzyme. Positive controls were comprised of the enzyme reaction in the absence of any inhibitor. Test compounds were incubated for 10 minutes in assay buffer containing 2.5 mM GSH and mPGES-1 enzyme followed by addition of PGH2 at a concentration of 15 μM for 1 minute. The reaction was stopped by addition of Stannous chloride (11 mg/ml) and PGE2 levels were measured (Masse F et al. (2005), Journal of Biomolecular Screening 10(6) 599-605., Goedken R E et al. (2008), Journal of Biomolecular Screening 13(7): 619-625) by HTRF kit (CisBio)).
Inhibition of mPGES-1 enzyme activity was measured using the percent of reaction occurring in the positive control. Concentration response curves were plotted using percent inhibition of maximum enzyme reaction. The IC50 value was calculated from the concentration response curve by nonlinear regression analysis using GraphPad PRISM software.

Compound | inhibition at 1 µM [%] | inhibition at 10 µM [%] | IC50 [nM]
CC(C)(C)Nc1ncnc2c(NC(=O)c3c(Cl)ccc(CNC(=O)C(C)(C)C)c3F)cccc12 [Example-62, N-(4-(tert-Butylamino)quinazolin-8-yl)-6-chloro-2-fluoro-3-(pivalamidomethyl)benzamide] | 97.3 | 97.8 | < 50
Cc1ccc(CNC(=O)C(C)(C)C)c(C)c1C(=O)Nc1cccc2c(NC(C)(C)C)ncnc12 [Example-68, N-(4-(tert-Butylamino)quinazolin-8-yl)-2,6-dimethyl-3-(pivalamidomethyl)benzamide] | 99.8 | 100 | < 50
CC(C)(C)C(=O)NCc1ccc(Cl)c(C(=O)Nc2cccc3c(Oc4cc(C(F)(F)F)ccc4F)nccc23)c1 [Example-41, 2-Chloro-N-(1-(2-fluoro-5-(trifluoromethyl)phenoxy)isoquinolin-5-yl)-5-(pivalamidomethyl)benzamide] | 99 | 97.6 | < 50
CC(C)(C)C(=O)NCc1ccc(Cl)c(C(=O)Nc2cccc3c(Oc4ccc(F)c(C(F)(F)F)c4)nccc23)c1 [Example-48, 2-Chloro-N-(1-(4-fluoro-3-(trifluoromethyl)phenoxy)isoquinolin-5-yl)-5-(pivalamidomethyl)benzamide] | 91.1 | 95.2 | < 50
CC(C)(CO)C(=O)NCc1ccc(Cl)c(C(=O)Nc2cccc3c(Oc4cccc(C(F)(F)F)c4)ncnc23)c1F [Example-66, 6-Chloro-2-fluoro-3-((3-hydroxy-2,2-dimethylpropanamido)methyl)-N-(4-(3-(trifluoromethyl)phenoxy)quinazolin-8-yl)benzamide] | 96.7 | 96.8 | < 50
CC(C)C(=O)NCc1cnc(C(F)F)c(C(=O)Nc2cccc3c(Oc4cccc(C(F)(F)F)c4)ncnc23)c1 [Example-74, 2-(Difluoromethyl)-5-(isobutyramidomethyl)-N-(4-(3-(trifluoromethyl)phenoxy)quinazolin-8-yl)nicotinamide] | 100 | 100 | < 50
CC(C)(C)C(=O)NCc1ccc(Cl)c(C(=O)Nc2cccc3c(N[C@H]4CC[C@H](C(F)(F)F)CC4)nccc23)c1F [Example-36, 6-Chloro-2-fluoro-3-(pivalamidomethyl)-N-(1-(((1r,4r)-4-(trifluoromethyl)cyclohexyl)amino)isoquinolin-5-yl)benzamide] | 98.1 | 99.1 | < 50
Cc1nc(Oc2cccc(C(F)(F)F)c2)c2cccc(NC(=O)c3c(Cl)ccc(CNC(=O)C(C)(C)C)c3F)c2n1 [Example-56, 6-Chloro-2-fluoro-N-(2-methyl-4-(3-(trifluoromethyl)phenoxy)quinazolin-8-yl)-3-(pivalamidomethyl)benzamide] | 97.9 | 99.3 | 50 to 100
CC(C)(C)Nc1ncnc2c(NC(=O)c3cc(CNC(=O)C(C)(C)C)ccc3Cl)cccc12 [Example-67, N-(4-(tert-Butylamino)quinazolin-8-yl)-2-chloro-5-(pivalamidomethyl)benzamide] | 96.5 | 100 | < 50
CCOc1ccnc2c(NC(=O)c3c(Cl)ccc(CNC(=O)C(C)(C)C)c3F)cccc12 [Example-63, 6-Chloro-N-(4-ethoxyquinolin-8-yl)-2-fluoro-3-(pivalamidomethyl)benzamide] | 90.8 | 94.7 | < 50
CC(C)(C)C(=O)NCc1ccc(Cl)c(C(=O)Nc2cccc3c(Nc4cccc(C(F)(F)F)c4)nccc23)c1F [Example-1, 6-Chloro-2-fluoro-3-(pivalamidomethyl)-N-(1-((3-(trifluoromethyl)phenyl)amino)isoquinolin-5-yl)benzamide] | 95.2 | 96.7 | < 50
CC(C)(C)C(=O)NCc1ccc(Cl)c(C(=O)Nc2cccc3c(NC4CCC(F)(F)CC4)ncnc23)c1F [Example-20, 6-Chloro-N-(4-((4,4-difluorocyclohexyl)amino)quinazolin-8-yl)-2-fluoro-3-(pivalamidomethyl)benzamide] | 98.8 | 99.4 | < 50
CC(C)Oc1ncnc2c(NC(=O)c3c(Cl)ccc(CNC(=O)C(C)(C)C)c3F)cccc12 [Example-59, 6-Chloro-2-fluoro-N-(4-isopropoxyquinazolin-8-yl)-3-(pivalamidomethyl)benzamide] | 97.5 | 99.4 | < 50
CC(C)(C)C(=O)NCc1ccc(Cl)c(C(=O)Nc2cccc3c(Oc4cccc(C(F)(F)F)c4)nccc23)c1 [Example-7, 2-Chloro-5-(pivalamidomethyl)-N-(1-(3-(trifluoromethyl)phenoxy)isoquinolin-5-yl)benzamide] | 100 | 96.7 | < 50
CC(C)Nc1ncnc2c(NC(=O)c3cc(CNC(=O)C(C)C)cnc3C(F)F)cccc12 [Example-76, 2-(Difluoromethyl)-5-(isobutyramidomethyl)-N-(4-(isopropylamino)quinazolin-8-yl)nicotinamide] | 83.5 | 93.4 | 50 to 100
CC(C)(C)C(=O)NCc1ccc(Cl)c(C(=O)Nc2cccc3c(Nc4ccc(C(F)(F)F)cc4F)nccc23)c1 [Example-44, 2-Chloro-N-(1-((2-fluoro-4-(trifluoromethyl)phenyl)amino)isoquinolin-5-yl)-5-(pivalamidomethyl)benzamide] | 100 | 100 | < 50
CC(C)(C)C(=O)NCc1ccc(Cl)c(C(=O)Nc2cccc3c(Oc4cccc(C(F)(F)F)c4)nccc23)c1F [Example-5, 6-Chloro-2-fluoro-3-(pivalamidomethyl)-N-(1-(3-(trifluoromethyl)phenoxy)isoquinolin-5-yl)benzamide] | 99.5 | 98.5 | < 50
CC1(C)CCC(Oc2ncnc3c(NC(=O)c4c(Cl)ccc(CNC(=O)C(C)(C)C)c4F)cccc23)CC1 [Example-24, 6-Chloro-N-(4-((4,4-dimethylcyclohexyl)oxy)quinazolin-8-yl)-2-fluoro-3-(pivalamidomethyl)benzamide] | 99.3 | 99.8 | < 50
CC(C)(C)C(=O)NCc1ccc(Cl)c(C(=O)Nc2cccc3c(Nc4ccc(C(F)(F)F)cc4F)ncnc23)c1F [Example-29, 6-Chloro-2-fluoro-N-(4-((2-fluoro-4-(trifluoromethyl)phenyl)amino)quinazolin-8-yl)-3-(pivalamidomethyl)benzamide] | 99 | 99.8 | < 50
CC(C)(C)C(=O)NCc1ccc(Cl)c(C(=O)Nc2cccc3c(Oc4ccc(C(F)(F)F)cc4)nccc23)c1 [Example-46, 2-Chloro-5-(pivalamidomethyl)-N-(1-(4-(trifluoromethyl)phenoxy)isoquinolin-5-yl)benzamide] | 89.4 | 97.7 | < 50
Cc1nc(Nc2cccc(C(F)(F)F)c2)c2cccc(NC(=O)c3c(Cl)ccc(CNC(=O)C(C)(C)C)c3F)c2n1 [Example-33, 6-Chloro-2-fluoro-N-(2-methyl-4-((3-(trifluoromethyl)phenyl)amino)quinazolin-8-yl)-3-(pivalamidomethyl)benzamide] | 95.5 | 97.2 | < 50
CC(C)(C)C(=O)NCc1ccc(Cl)c(C(=O)Nc2cccc3c(Oc4cccc(C(F)(F)F)c4)ncnc23)c1 [Example-10, 2-Chloro-5-(pivalamidomethyl)-N-(4-(3-(trifluoromethyl)phenoxy)quinazolin-8-yl)benzamide] | 99.7 | 98.9 | < 50
CC(C)(C)Nc1ncnc2c(NC(=O)c3c(Cl)ccc(CNC(=O)C(C)(C)CF)c3F)cccc12 [Example-79, N-(4-(tert-Butylamino)quinazolin-8-yl)-6-chloro-2-fluoro-3-((3-fluoro-2,2-dimethylpropanamido)methyl)benzamide] | 100 | 99.1 | < 50
CN(C)c1ncnc2c(NC(=O)c3c(Cl)ccc(CNC(=O)C(C)(C)C)c3F)cccc12 [Example-61, 6-Chloro-N-(4-(dimethylamino)quinazolin-8-yl)-2-fluoro-3-(pivalamidomethyl)benzamide] | 88.3 | 97.2 | > 100
